Source: patent US20200354426A1 (MEDIMMUNE LIMITED, priority 2016, published 2020)
Numbered stars: 1 amine (or outer) side, 2 acyl side, 3 side chain; on linkers, the order of the positions; unused ones are H or OH. Side chains are listed from the residue outwards. Peptide text beside a SMILES is read from it. * marks the point of attachment. γGlu = O=C(O)[C@H](CCC(=O)[*:2])N[*:1]; Palmitoyl = CCCCCCCCCCCCCCCC(=O)*; Ahx = NCCCCCC(=O)O

Tests used:
Assay in all cases: cAMP activity assay in assay medium (assay 1)
Format in all cases: cell-based
Human GlucR = target: T1, Human GlucR (Homo sapiens, UniProt P47871); settings: assay medium; Table 4; read-out: hGlucR EC50
T1 construct: expressed in transfected cells
Text: (§1) Biological Activity of Peptides in Cell-Based cAMP Activity Assay (Assay 1):
(§2) All sample dilutions were made in duplicate.

Human GIPr = target: T2, Human GIPr (Homo sapiens, UniProt P48546); settings: assay medium; Table 4; read-out: hGIPR EC50
T2 construct: expressed in transfected cells
T2 sequence (P48546 22-466): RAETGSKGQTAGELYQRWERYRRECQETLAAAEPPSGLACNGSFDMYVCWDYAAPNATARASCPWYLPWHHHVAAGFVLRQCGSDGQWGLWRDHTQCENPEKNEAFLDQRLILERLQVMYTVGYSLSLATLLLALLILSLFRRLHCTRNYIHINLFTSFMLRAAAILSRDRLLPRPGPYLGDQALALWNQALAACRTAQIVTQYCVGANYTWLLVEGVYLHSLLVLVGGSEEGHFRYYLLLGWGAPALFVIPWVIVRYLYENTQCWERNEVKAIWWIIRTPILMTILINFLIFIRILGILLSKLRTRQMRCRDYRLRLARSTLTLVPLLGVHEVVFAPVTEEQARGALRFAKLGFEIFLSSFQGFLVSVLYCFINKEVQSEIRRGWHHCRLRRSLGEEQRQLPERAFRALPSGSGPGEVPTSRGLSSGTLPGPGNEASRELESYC
Text: as §1, §2

Human GLP1R = Human GLP1R (Homo sapiens, UniProt P43220); parameters: expressed in transfected cells; settings: assay medium; Table 4; read-out: hGLP1R EC50
Text: as §1, §2

T1 sequence (P47871 26-477): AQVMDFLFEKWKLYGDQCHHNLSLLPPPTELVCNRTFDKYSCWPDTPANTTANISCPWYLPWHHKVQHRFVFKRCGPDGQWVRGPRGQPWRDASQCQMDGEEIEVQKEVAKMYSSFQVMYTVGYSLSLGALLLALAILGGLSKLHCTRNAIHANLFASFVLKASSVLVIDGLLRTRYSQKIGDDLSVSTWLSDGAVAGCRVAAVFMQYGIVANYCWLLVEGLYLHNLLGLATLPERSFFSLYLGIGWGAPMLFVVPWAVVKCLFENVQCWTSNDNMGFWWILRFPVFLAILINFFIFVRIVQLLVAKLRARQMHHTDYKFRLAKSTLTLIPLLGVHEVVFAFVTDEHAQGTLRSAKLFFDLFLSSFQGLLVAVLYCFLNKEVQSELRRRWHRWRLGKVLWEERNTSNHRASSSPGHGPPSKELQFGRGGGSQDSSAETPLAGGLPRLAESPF
Chain of Human GLP1R (P43220 24-463): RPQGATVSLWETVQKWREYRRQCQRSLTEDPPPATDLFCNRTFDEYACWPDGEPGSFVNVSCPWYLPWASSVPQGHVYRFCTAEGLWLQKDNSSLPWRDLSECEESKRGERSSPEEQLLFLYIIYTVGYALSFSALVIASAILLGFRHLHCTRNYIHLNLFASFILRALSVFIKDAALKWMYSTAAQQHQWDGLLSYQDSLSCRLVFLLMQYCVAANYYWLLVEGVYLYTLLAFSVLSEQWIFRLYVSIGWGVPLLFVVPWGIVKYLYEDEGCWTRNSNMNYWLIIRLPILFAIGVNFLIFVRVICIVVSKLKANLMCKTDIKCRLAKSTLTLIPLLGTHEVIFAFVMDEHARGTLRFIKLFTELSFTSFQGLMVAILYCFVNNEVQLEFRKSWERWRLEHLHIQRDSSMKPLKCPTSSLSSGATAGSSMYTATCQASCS

| SMILES | EC50 (Human GlucR) [nM] | EC50 (Human GIPr) [nM] | EC50 (Human GLP1R) [nM] |
| --- | --- | --- | --- |
| CCCCCCCCCCCCCCCC(=O)N[C@@H](CCC(=O)NCCCC[C@H](NC(=O)[C@H](CO)NC(=O)[C@H](CC(=O)O)NC(=O)[C@H](CC(C)C)NC(=O)[C@H](Cc1ccc(O)cc1)NC(=O)[C@H](CCCCN)NC(=O)[C@H](CO)NC(=O)[C@H](Cc1ccc(O)cc1)NC(=O)[C@H](CC(=O)O)NC(=O)[C@H](CO)NC(=O)[C@@H](NC(=O)[C@H](Cc1ccccc1)NC(=O)[C@@H](NC(=O)CNC(=O)[C@H](CCC(N)=O)NC(=O)[C@H](CO)NC(=O)[C@@H](N)Cc1c[nH]cn1)[C@@H](C)O)[C@@H](C)O)C(=O)N[C@@H](CCCNC(=N)N)C(=O)N[C@@H](C)C(=O)N[C@@H](CCCNC(=N)N)C(=O)N[C@@H](CC(=O)O)C(=O)N[C@@H](Cc1ccccc1)C(=O)N[C@H](C(=O)N[C@@H](CCC(=O)O)C(=O)N[C@@H](Cc1c[nH]c2ccccc12)C(=O)N[C@@H](CC(C)C)C(=O)N[C@H](C(=O)N[C@@H](C)C(=O)NCC(=O)NCC(N)=O)C(C)C)C(C)C)C(=O)O [g766] (H-HSQGTFTSDYSKYLDSK([γGlu-Palmitoyl])RARDFVEWLVAGG-NH2; N-terminus assumed) | 0.00465 | 47.9 | 0.0702 |
| CCCCCCCCCCCCCCCC(=O)NCCCCCC(=O)NCCCC[C@H](NC(=O)[C@H](CO)NC(=O)[C@H](CC(=O)O)NC(=O)[C@H](CC(C)C)NC(=O)[C@H](Cc1ccc(O)cc1)NC(=O)[C@H](CCC(=O)O)NC(=O)[C@H](CO)NC(=O)[C@H](Cc1ccc(O)cc1)NC(=O)[C@H](CC(=O)O)NC(=O)[C@H](CO)NC(=O)[C@@H](NC(=O)[C@H](Cc1ccccc1)NC(=O)[C@@H](NC(=O)CNC(=O)[C@H](CCC(N)=O)NC(=O)[C@H](CO)NC(=O)[C@@H](N)Cc1c[nH]cn1)[C@@H](C)O)[C@@H](C)O)C(=O)N[C@@H](CCCNC(=N)N)C(=O)N[C@@H](C)C(=O)N[C@@H](CCCNC(=N)N)C(=O)N[C@@H](CC(=O)O)C(=O)N[C@@H](Cc1ccccc1)C(=O)N[C@H](C(=O)N[C@@H](CCC(=O)O)C(=O)N[C@@H](Cc1c[nH]c2ccccc12)C(=O)N[C@@H](CC(C)C)C(=O)N[C@@H](CCC(=O)O)C(=O)N[C@@H](CCCNC(=N)N)C(=O)NCC(=O)NCC(N)=O)C(C)C [g771] (H-HSQGTFTSDYSEYLDSK([Ahx-Palmitoyl])RARDFVEWLERGG-NH2; N-terminus assumed) | 0.00551 | 37.1 | 0.0175 |
| CCCCCCCCCCCCCCCC(=O)N[C@@H](CCC(=O)NCCCC[C@H](NC(=O)[C@H](CO)NC(=O)[C@H](CC(=O)O)NC(=O)[C@H](CC(C)C)NC(=O)[C@H](Cc1ccc(O)cc1)NC(=O)[C@H](CCC(=O)O)NC(=O)[C@H](CO)NC(=O)[C@H](Cc1ccc(O)cc1)NC(=O)[C@H](CC(=O)O)NC(=O)[C@H](CO)NC(=O)[C@@H](NC(=O)[C@H](Cc1ccccc1)NC(=O)[C@@H](NC(=O)CNC(=O)[C@H](CCC(N)=O)NC(=O)[C@H](CO)NC(=O)[C@@H](N)Cc1c[nH]cn1)[C@@H](C)O)[C@@H](C)O)C(=O)N[C@@H](CCCNC(=N)N)C(=O)N[C@@H](C)C(=O)N[C@@H](CCCNC(=N)N)C(=O)N[C@@H](CC(=O)O)C(=O)N[C@@H](Cc1ccccc1)C(=O)N[C@H](C(=O)N[C@@H](C)C(=O)N[C@@H](Cc1c[nH]c2ccccc12)C(=O)N[C@@H](CC(C)C)C(=O)N[C@@H](CCC(=O)O)C(=O)N[C@@H](CCCNC(=N)N)C(=O)NCC(=O)NCC(N)=O)C(C)C)C(=O)O [g772] (H-HSQGTFTSDYSEYLDSK([γGlu-Palmitoyl])RARDFVAWLERGG-NH2; N-terminus assumed) | 0.184 | 1540 | 0.292 |
| CCCCCCCCCCCCCCCC(=O)N[C@@H](CCC(=O)NCCCC[C@H](NC(=O)[C@H](Cc1ccc(O)cc1)NC(=O)[C@H](CCCCN)NC(=O)[C@H](CO)NC(=O)[C@H](Cc1ccc(O)cc1)NC(=O)[C@H](CC(=O)O)NC(=O)[C@H](CO)NC(=O)[C@@H](NC(=O)[C@H](Cc1ccccc1)NC(=O)[C@@H](NC(=O)CNC(=O)[C@H](CCC(N)=O)NC(=O)[C@H](CO)NC(=O)[C@@H](N)Cc1c[nH]cn1)[C@@H](C)O)[C@@H](C)O)C(=O)N[C@@H](CC(=O)O)C(=O)N[C@@H](CO)C(=O)N[C@@H](CCC(=O)O)C(=O)N[C@@H](CCCNC(=N)N)C(=O)N[C@@H](C)C(=O)N[C@@H](CCCNC(=N)N)C(=O)N[C@@H](CC(=O)O)C(=O)N[C@@H](Cc1ccccc1)C(=O)N[C@H](C(=O)N[C@@H](C)C(=O)N[C@@H](Cc1c[nH]c2ccccc12)C(=O)N[C@@H](CC(C)C)C(=O)N[C@H](C(=O)N[C@@H](C)C(=O)NCC(=O)NCC(N)=O)C(C)C)C(C)C)C(=O)O [g777] (H-HSQGTFTSDYSKYK([γGlu-Palmitoyl])DSERARDFVAWLVAGG-NH2; N-terminus assumed) | 0.00124 | 4.53 | 0.0274 |
| CCCCCCCCCCCCCCCC(=O)N[C@@H](CCC(=O)NCCCC[C@H](NC(=O)[C@H](CC(=O)O)NC(=O)[C@H](CC(C)C)NC(=O)[C@H](Cc1ccc(O)cc1)NC(=O)[C@H](CCCCN)NC(=O)[C@H](CO)NC(=O)[C@H](Cc1ccc(O)cc1)NC(=O)[C@H](CC(=O)O)NC(=O)[C@H](CO)NC(=O)[C@@H](NC(=O)[C@H](Cc1ccccc1)NC(=O)[C@@H](NC(=O)CNC(=O)[C@H](CCC(N)=O)NC(=O)[C@H](CO)NC(=O)[C@@H](N)Cc1c[nH]cn1)[C@@H](C)O)[C@@H](C)O)C(=O)N[C@@H](CCCNC(=N)N)C(=O)N[C@@H](CCCNC(=N)N)C(=O)N[C@@H](C)C(=O)N[C@@H](CCCNC(=N)N)C(=O)N[C@@H](CC(=O)O)C(=O)N[C@@H](Cc1ccccc1)C(=O)N[C@H](C(=O)N[C@@H](C)C(=O)N[C@@H](Cc1c[nH]c2ccccc12)C(=O)N[C@@H](CC(C)C)C(=O)N[C@@H](CCC(=O)O)C(=O)N[C@@H](C)C(=O)NCC(=O)NCC(N)=O)C(C)C)C(=O)O [g781] (H-HSQGTFTSDYSKYLDK([γGlu-Palmitoyl])RRARDFVAWLEAGG-NH2; N-terminus assumed) | 0.00285 | 402 | 0.104 |
| CCCCCCCCCCCCCCCC(=O)N[C@@H](CCC(=O)NCCCC[C@H](NC(=O)[C@H](CCCNC(=N)N)NC(=O)[C@H](CO)NC(=O)[C@H](CC(=O)O)NC(=O)[C@H](CC(C)C)NC(=O)[C@H](Cc1ccc(O)cc1)NC(=O)[C@H](CCCCN)NC(=O)[C@H](CO)NC(=O)[C@H](Cc1ccc(O)cc1)NC(=O)[C@H](CC(=O)O)NC(=O)[C@H](CO)NC(=O)[C@@H](NC(=O)[C@H](Cc1ccccc1)NC(=O)[C@@H](NC(=O)CNC(=O)[C@H](CCC(N)=O)NC(=O)[C@H](CO)NC(=O)[C@@H](N)Cc1c[nH]cn1)[C@@H](C)O)[C@@H](C)O)C(=O)N[C@@H](C)C(=O)N[C@@H](CCCNC(=N)N)C(=O)N[C@@H](CC(=O)O)C(=O)N[C@@H](Cc1ccccc1)C(=O)N[C@H](C(=O)N[C@@H](C)C(=O)N[C@@H](Cc1c[nH]c2ccccc12)C(=O)N[C@@H](CC(C)C)C(=O)N[C@@H](CCC(=O)O)C(=O)N[C@@H](C)C(=O)NCC(=O)NCC(N)=O)C(C)C)C(=O)O [g782] (H-HSQGTFTSDYSKYLDSRK([γGlu-Palmitoyl])ARDFVAWLEAGG-NH2; N-terminus assumed) | 0.156 | 1430 | 0.0254 |
